Data as given in patent US8791113B2, “2,4-diaryl-substituted [1,8] naphthyridines as kinase inhibitors for use against cancer” (Merck Patent GmbH, priority 2010, dated 2014).
Counter-ions that a name gives are not always drawn. Like-named read-outs stand apart in the source and are kept apart here.

Key:
[1] = system: TGF-beta-induced phosphorylation of Smad2 (Ser465/467) and Smad3 (Ser423/425) in Mv1-Lu cells; assay: Inhibition of Smad2/3 phosphorylation in Mv1Lu cells (PathScan Phospho-Smad2 ELISA); type: cell-based, mink Mustela vison; conditions: Neogale vison, read-out: TβR activity (Example 51)
Description: Inhibition of Smad2/3 Phosphorylation in Mv1 Lu Cells by TGF-Beta Receptor I Kinase Inhibitors
This assay was used to determine the inhibitory potency of compounds on TGF-beta-induced phosphorylation of Smad2 (Ser465/467) and Smad3 (Ser423/425). Mv1-Lu cells (lung epithelial cell line from mink Mustela vison; ATCC number: CCL-64) were seeded in DMEM (Invitrogen) supplemented with 10% fetal bovine serum (Pan Biotech) at a defined cell density in 24-well or 96-well plates (24-well plate: 1.5×10^5 cells per well; 96-well plate: 4×10^4 cells per well). Cell cultures were incubated in DMEM at 37° C. and 10% CO2. On the next day, the medium was replaced and cells were serum-starved for 16-20 hours. The following day, serial dilutions of compounds were added to the wells, pre-incubated for 1.5 hrs before recombinant TGF-beta 1 ligand (final concentration 5 ng/ml; R&D systems) was added. After one hour of ligand stimulation, lysates were prepared and analyzed using an enzyme-linked immunosorbent assay kit (PathScan Phospho-Smad2 Kit, Cell Signaling Technologies). The ELISA detects phosphorylated Smad2 as well as phosphorylated Smad3 with the phospho-specific antibody. TGF-beta stimulated cells and unstimulated cells served as positive and negative controls (100% and background control). The concentration of the vehicle DMSO was kept constant at 0.2% (v/v) in all wells. Dose-response relationships were fitted using curve fitting algorithms of the RS1 statistics software package (Brooks Automation Inc. RS/1- Statistical Tools Handbook. Release 6.2) to determine the concentration at which half-maximal inhibition (IC50) of Smad2/3 phosphorylation was achieved.

[2] = molecular target: T1, GST-ALK5 (TGF-beta receptor kinase) (Homo sapiens, UniProt P36897); assay: In-vitro (enzyme) kinase flashplate assay: GST-ALK5 phosphorylation of GST-SMAD2 with 33P-ATP; type: biochemical; conditions: 384-well flashplate kinase assay, GST-ALK5 / GST-SMAD2, 33P-ATP, 30° C., 45 min; read-out: TβR activity (Example 50)
T1 sequence (P36897 34-503): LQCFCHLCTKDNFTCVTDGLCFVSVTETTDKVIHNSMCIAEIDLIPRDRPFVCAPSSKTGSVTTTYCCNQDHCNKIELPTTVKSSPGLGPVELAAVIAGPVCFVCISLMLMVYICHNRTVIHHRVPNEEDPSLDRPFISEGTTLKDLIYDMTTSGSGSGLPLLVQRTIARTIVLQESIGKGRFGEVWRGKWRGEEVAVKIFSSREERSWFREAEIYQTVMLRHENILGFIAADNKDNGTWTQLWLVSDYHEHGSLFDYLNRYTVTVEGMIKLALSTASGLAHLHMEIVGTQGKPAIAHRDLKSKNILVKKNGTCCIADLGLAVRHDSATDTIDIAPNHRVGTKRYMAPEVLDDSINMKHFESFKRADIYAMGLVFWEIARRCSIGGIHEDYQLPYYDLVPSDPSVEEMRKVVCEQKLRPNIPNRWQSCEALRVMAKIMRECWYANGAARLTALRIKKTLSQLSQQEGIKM
Description: In-vitro (Enzyme) Assay for Determination of the Efficacy of Inhibitors of the Inhibition of TGF-Beta-Mediated Effects
The kinase assay was carried out as 384-well flashplate assay. 31.2 nM of GST-ALK5, 439 nM of GST-SMAD2 and 3 mM of ATP (with 0.3 μCi of ^33P-ATP/well) were incubated in a total volume of 35 μl (20 mM of HEPES, 10 mM of MgCl2, 5 mM of MnCl2, 1 mM of DTT, 0.1% of BSA, pH 7.4) without or with test substance (5-10 concentrations) at 30° C. for 45 min. The reaction was stopped using 25 μl of 200 mM EDTA solution, filtered with suction at room temperature after 30 min, and the wells were washed with 3 times 100 μl of 0.9% NaCl solution. Radioactivity was measured in the TopCount. The IC50 values were calculated using RS1.

[3] = Mv1-Lu cells, TGF-beta 1 5 ng/ml, Phospho-Smad2/3 ELISA

| IC50 [1, 3] [nM] | IC50 [2] [nM] | SMILES | IC50 [1] [nM] |
| --- | --- | --- | --- |
| < 1000 | < 1000 | Fc1ccc(Cl)cc1-c1cc(-c2c[nH]c3cnccc23)c2cccnc2n1 [Compound 1, 2-(5-Chloro-2-fluoro-phenyl)-4-(1H-pyrrolo[2,3-c]pyridin-3-yl)-[1,8]naphthyridine] | – |
| < 1000 | < 1000 | Fc1ccc(Cl)cc1-c1cc(-c2cccc3cnccc23)c2cccnc2n1 [Compound 2, 2-(5-Chloro-2-fluoro-phenyl)-4-isoquinolin-5-yl-[1,8]naphthyridine] | – |
| < 1000 | < 1000 | Fc1ccc(C(F)(F)F)cc1-c1cc(-c2c[nH]c3cnccc23)c2cccnc2n1 [Compound 3, 2-(2-Fluoro-5-trifluoromethyl-phenyl)-4-(1H-pyrrolo[2,3-c]pyridin-3-yl)-[1,8]naphthyridine] | – |
| < 1000 | < 1000 | Nc1nccc2c(-c3cc(-c4cc(Cl)ccc4F)nc4ncccc34)cccc12 [Compound 4, 5-[2-(5-Chloro-2-fluoro-phenyl)-[1,8]naphthyridin-4-yl]-isoquinolin-1-ylamine] | – |
| < 1000 | – | COCCn1cc(-c2cc(-c3cc(Cl)ccc3F)nc3ncccc23)c2ccncc21 [Compound 5, 2-(5-Chloro-2-fluoro-phenyl)-4-[1-(2-methoxy-ethyl)-1H-pyrrolo[2,3-c]pyridin-3-yl]-[1,8]naphthyridine] | – |
| < 1000 | < 1000 | Cc1cccc(-c2cc(-c3cccc4c(N)nccc34)c3cccnc3n2)n1 [Compound 6, 5-[2-(6-Methyl-pyridin-2-yl)-[1,8]naphthyridin-4-yl]-isoquinolin-1-ylamine] | – |
| 1000 to 10000 | < 1000 | Cc1cccc(-c2cc(-c3nccc4cnccc34)c3cccnc3n2)n1 [Compound 7, 2-(6-Methyl-pyridin-2-yl)-4-[2,6]naphthyridin-1-yl-[1,8]naphthyridine] | – |
| < 1000 | < 1000 | Nc1nccc2c(-c3cc(-c4cc(C(F)(F)F)ccc4F)nc4ncccc34)cccc12 [Compound 8, 5-[2-(2-Fluoro-5-trifluoromethyl-phenyl)-[1,8]naphthyridin-4-yl]-isoquinolin-1-ylamine] | – |
| < 1000 | < 1000 | Nc1nccc2c(-c3cc(-c4ccccc4F)nc4ncccc34)cccc12 [Compound 9, 5-[2-(2-Fluoro-phenyl)-[1,8]naphthyridin-4-yl]-isoquinolin-1-ylamine] | – |
| < 1000 | < 1000 | Nc1nccc2c(-c3cc(-c4cc(F)ccc4F)nc4ncccc34)cccc12 [Compound 10, 5-[2-(2,5-Difluoro-phenyl)-[1,8]naphthyridin-4-yl]-isoquinolin-1-ylamine] | – |
| < 1000 | < 1000 | Nc1nccc2c(-c3cc(-c4cc(Cl)ccc4F)nc4ncccc34)nccc12 [Compound 11, 5-[2-(5-Chloro-2-fluoro-phenyl)-[1,8]naphthyridin-4-yl]-[2,6]naphthyridin-1-ylamine] | – |
| < 1000 | < 1000 | Fc1ccc(Cl)cc1-c1cc(-c2coc3cnccc23)c2cccnc2n1 [Compound 12, 2-(5-Chloro-2-fluoro-phenyl)-4-furo[2,3-c]pyridin-3-yl-[1,8]naphthyridine] | – |
| < 1000 | < 1000 | Nc1nccc2c(-c3cc(-c4cc(Cl)ccc4F)nc4ncccc34)coc12 [Compound 13, 3-[2-(5-Chloro-2-fluoro-phenyl)-[1,8]naphthyridin-4-yl]-furo[2,3-c]pyridin-7-ylamine] | – |
| < 1000 | < 1000 | Nc1nccc2c(-c3cc(-c4ccccc4F)nc4ncccc34)nccc12 [Compound 14, 5-[2-(2-Fluoro-phenyl)-[1,8]naphthyridin-4-yl]-[2,6]naphthyridin-1-ylamine] | – |
| 1000 to 10000 | – | Nc1ncnc2c(-c3cc(-c4ccccc4F)nc4ncccc34)cccc12 [Compound 15, 8-[2-(2-Fluoro-phenyl)-[1,8]naphthyridin-4-yl]-quinazolin-4-ylamine] | – |
| < 1000 | – | O=[N+]([O-])c1ccc(-c2cc(-c3ccccc3F)nc3ncccc23)c2ccncc12 [Compound 16, 2-(2-Fluoro-phenyl)-4-(8-nitro-isoquinolin-5-yl)-[1,8]naphthyridine] | – |
| < 1000 | < 1000 | COc1ccc(-c2cc(-c3ccccc3F)nc3ncccc23)c2ccncc12 [Compound 17, 2-(2-Fluoro-phenyl)-4-(8-methoxy-isoquinolin-5-yl)-[1,8]naphthyridine] | – |
| > 10000 | 1000 to 10000 | Fc1ccccc1-c1cc(-c2ncnc3cnccc23)c2cccnc2n1 [Compound 18, 4-[2-(2-Fluoro-phenyl)-[1,8]naphthyridin-4-yl]-pyrido[3,4-d]pyrimidine] | – |
| < 1000 | < 1000 | Fc1ccccc1-c1cc(-c2cccc3cnccc23)c2cccnc2n1 [Compound 19, 2-(2-Fluoro-phenyl)-4-isoquinolin-5-yl-[1,8]naphthyridine] | – |
| 1000 to 10000 | 1000 to 10000 | Fc1ccccc1-c1cc(-c2nccc3cnccc23)c2cccnc2n1 [Compound 23, 2-(2-Fluoro-phenyl)-4-[2,6]naphthyridin-1-yl-[1,8]naphthyridine] | – |
| 1000 to 10000 | < 1000 | Fc1ccc(Cl)cc1-c1cc(-c2ncnc3cnccc23)c2cccnc2n1 [Compound 24, 4-[2-(5-Chloro-2-fluoro-phenyl)-[1,8]naphthyridin-4-yl]-pyrido[3,4-d]pyrimidine] | – |
| > 10000 | – | Nc1ncnc2c(-c3cc(-c4ccccc4F)nc4ncccc34)nccc12 [Compound 36, 8-[2-(2-Fluoro-phenyl)-[1,8]naphthyridin-4-yl]-pyrido[3,4-d]pyrimidin-4-ylamine] | – |
| < 1000 | – | OCCOc1ccc(-c2cc(-c3ccccc3F)nc3ncccc23)c2ccncc12 [Compound 39, 2-{5-[2-(2-Fluoro-phenyl)-[1,8]naphthyridin-4-yl]-isoquinolin-8-yloxy}-ethanol] | – |
| < 1000 | – | Nc1ccc(-c2cc(-c3ccccc3F)nc3ncccc23)c2ccncc12 [Compound 41, 5-[2-(2-Fluoro-phenyl)-[1,8]naphthyridin-4-yl]-isoquinolin-8-ylamine] | – |
| > 10000 | – | Nc1cc2c(-c3cc(-c4cc(Cl)ccc4F)nc4ncccc34)cccc2cn1 [Compound 49, 5-[2-(5-Chloro-2-fluoro-phenyl)-[1,8]naphthyridin-4-yl]-isoquinolin-3-ylamine] | – |
| – | < 1000 | CC(=O)Nc1nccc2c(-c3cc(-c4ccccc4F)nc4ncccc34)nccc12 [Compound 69, N-{5-[2-(2-Fluoro-phenyl)-[1,8]naphthyridin-4-yl]-[2,6]naphthyridin-1-yl}-acetamide] | – |

| SMILES | IC50 [1, 3] [nM] | IC50 [2] [nM] | IC50 [1] [nM] |
| --- | --- | --- | --- |
| Nc1nccc2c(-c3cc(-c4cc(F)ccc4F)nc4ncccc34)nccc12 [Compound 20, 5-[2-(2,5-Difluoro-phenyl)-[1,8]naphthyridin-4-yl]-[2,6]naphthyridin-1-ylamine hydrochloride] | – | < 1000 | < 1000 |
| Cc1cccc(-c2cc(-c3nccc4c(N)nccc34)c3cccnc3n2)n1 [Compound 21, 5-[2-(6-Methyl-pyridin-2-yl)-[1,8]naphthyridin-4-yl]-[2,6]naphthyridin-1-ylamine hydrochloride] | – | < 1000 | < 1000 |
| Nc1ccc(-c2cc(-c3cc(Cl)ccc3F)nc3ncccc23)c2ccncc12 [Compound 22, 5-[2-(5-Chloro-2-fluoro-phenyl)-[1,8]naphthyridin-4-yl]-isoquinolin-8-ylamine hydrochloride] | – | < 1000 | < 1000 |
